Results published in ChEMBL document CHEMBL1201862, “PubChem BioAssay data set” (2004).
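Cultured in 96-well plates, cells were exposed to test compound for 48 hours across five concentrations. At the GI50, growth is halved.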 The source made the active and inactive calls. Cut-off read from the data, not from the text of the source: active = GI50 up to about 1.1 µM and inactive = higher.

Tests used:
Test in all cases: growth of human tumour cells (NCI), 48 h
UACC-62 = test system: UACC-62
SK-MEL-28 = test system: SK-MEL-28
SN12C = test system: SN12C
786-0 = test system: 786-0
A549 = test system: A549
SW-620 = test system: SW-620
A498 = test system: A498
TK-10 = test system: TK-10
SF-539 = test system: SF-539
HCC 2998 = test system: HCC 2998
MOLT-4 = test system: MOLT-4
ACHN = test system: ACHN
HT-29 = test system: HT-29
SK-MEL-2 = test system: SK-MEL-2
IGROV-1 = test system: IGROV-1
KM12 = test system: KM12
NCI-H522 = test system: NCI-H522
PC-3 = test system: PC-3
MDA-MB-231 = test system: MDA-MB-231
Hs-578T = test system: Hs-578T

Structure (SMILES) | GI50 (UACC-62) | GI50 (SK-MEL-28) | GI50 (SN12C) | GI50 (786-0) | GI50 (A549) | GI50 (SW-620) | GI50 (A498) | GI50 (TK-10) | GI50 (SF-539) | GI50 (HCC 2998) | GI50 (MOLT-4) | GI50 (ACHN) | GI50 (HT-29) | GI50 (SK-MEL-2) | GI50 (IGROV-1) | GI50 (KM12) | GI50 (NCI-H522) | GI50 (PC-3) | GI50 (MDA-MB-231) | GI50 (Hs-578T)
C=CCN1CCC23c4c5ccc(O)c4OC2C(=NN=C2CCC4(O)C6Cc7ccc(O)c8c7C4(CCN6CC=C)C2O8)CCC3(O)C1C5 (stereo unspecified) | 21 µM (inactive) | 17.3 µM (inactive) | 23 µM (inactive) | 18.3 µM (inactive) | 21.4 µM (inactive) | 21.4 µM (inactive) | 20.2 µM (inactive) | 21.6 µM (inactive) | 18.6 µM (inactive) | 21.3 µM (inactive) | 38.3 µM (inactive) | 20.2 µM (inactive) | 18.3 µM (inactive) | 18 µM (inactive) | > 100 µM (inactive) | 21.2 µM (inactive) | 31 µM (inactive) |  |  | 
C[C@@H](NC(=O)OC1C=CC2(CC1)C(=O)N(C)c1ccccc12)c1cccc2ccccc12 (stereo partly specified) | > 25 µM (inactive) | > 25 µM (inactive) | > 25 µM (inactive) | > 25 µM (inactive) | 12.8 µM (inactive) | > 25 µM (inactive) | > 25 µM (inactive) | > 25 µM (inactive) |  | > 25 µM (inactive) | 5.93 µM (inactive) | > 25 µM (inactive) | > 25 µM (inactive) | > 25 µM (inactive) | 4.86 µM (inactive) | 11.6 µM (inactive) | 5.24 µM (inactive) | > 25 µM (inactive) | > 25 µM (inactive) | 
Cc1cc(N)c2cc(NC(=O)CCCCCCCCC(=O)Nc3ccc4nc(C)cc(N)c4c3)ccc2n1 | > 77.3 µM (inactive) | 42.8 µM (inactive) | 3.87 µM (inactive) | 28.2 µM (inactive) | 6.35 µM (inactive) | 27.9 µM (inactive) | 29.5 µM (inactive) | 45.8 µM (inactive) | 16.8 µM (inactive) | 10.3 µM (inactive) | 5.07 µM (inactive) | 69.5 µM (inactive) | 32.9 µM (inactive) | > 100 µM (inactive) | > 30.5 µM (inactive) | 5.57 µM (inactive) | 1.98 µM (inactive) |  |  | 
COc1ccc(C(=O)C(C(=O)CCC(=O)Nc2ccc(Cl)c(Cl)c2)c2ccc(OC)cc2)cc1 (stereo unspecified) | > 100 µM (inactive) | > 100 µM (inactive) | > 100 µM (inactive) | > 100 µM (inactive) | > 100 µM (inactive) | > 100 µM (inactive) | > 100 µM (inactive) | > 100 µM (inactive) | > 100 µM (inactive) | > 100 µM (inactive) | > 100 µM (inactive) | > 100 µM (inactive) | > 100 µM (inactive) | > 100 µM (inactive) | > 100 µM (inactive) | > 100 µM (inactive) | > 100 µM (inactive) |  |  | 
O=C(Sc1c(-c2ccccc2)c(=O)n(-c2ccccc2)c(=S)n1-c1ccccc1)c1ccc(Cl)cc1 | > 100 µM (inactive) | > 100 µM (inactive) | > 100 µM (inactive) | > 100 µM (inactive) | > 100 µM (inactive) | > 100 µM (inactive) | 98.9 µM (inactive) | > 100 µM (inactive) | > 100 µM (inactive) | > 100 µM (inactive) | 49.3 µM (inactive) | > 100 µM (inactive) | > 100 µM (inactive) |  | 63 µM (inactive) | > 100 µM (inactive) | 81.5 µM (inactive) |  | 55.8 µM (inactive) | > 100 µM (inactive)
Cc1cc2nc3c(C#N)c(-c4ccccc4)cc(Nc4ccc(Cl)cc4)n3c2cc1C |  | > 100 µM (inactive) | > 100 µM (inactive) | > 100 µM (inactive) | > 100 µM (inactive) | > 100 µM (inactive) | > 100 µM (inactive) | > 100 µM (inactive) | > 100 µM (inactive) | > 100 µM (inactive) |  | > 100 µM (inactive) |  | > 100 µM (inactive) |  | 59.4 µM (inactive) | 9.57 µM (inactive) | > 100 µM (inactive) | > 100 µM (inactive) | 
Nc1ccc2c(c1)C1Oc3ccccc3CC1CO2 (stereo unspecified) | > 100 µM (inactive) |  | > 100 µM (inactive) | > 100 µM (inactive) | > 100 µM (inactive) | > 100 µM (inactive) | > 100 µM (inactive) | > 100 µM (inactive) | > 100 µM (inactive) | > 100 µM (inactive) | > 100 µM (inactive) |  | > 100 µM (inactive) | > 100 µM (inactive) | > 100 µM (inactive) | > 100 µM (inactive) | > 100 µM (inactive) | > 100 µM (inactive) | > 100 µM (inactive) | 
C=CC1=CC(C)C[C@]1(O)C(=O)OC (stereo partly specified) | < 0.01 µM (active) | < 0.01 µM (active) | < 0.01 µM (active) | < 0.01 µM (active) | < 0.01 µM (active) | 38.5 µM (inactive) | < 0.01 µM (active) | < 0.01 µM (active) | > 100 µM (inactive) | < 0.01 µM (active) | < 0.01 µM (active) | < 0.01 µM (active) | < 0.01 µM (active) | < 0.01 µM (active) | < 0.01 µM (active) | < 0.01 µM (active) | > 100 µM (inactive) |  |  | 
